Assay results reported in patent US20110311657A1, “Use of a Neuroprotective Extract and Pharmaceutical Preparation Thereof” (Universiti Putra Malaysia, priority 2009, published 2011).

Experiments:
Assay type in all cases: in vivo, rat
[1] = test system: hippocampal CA1 pyramidal cells; experiment: Neuron viability in hippocampal CA1 of normal and nitric oxide (NO) deficient rats; details: for viable pyramidal cells in CA1: nitric oxide (NO) deficient rats, 12-week L-NAME administration, FIG. 1a
Protocol: (§1) Neuroprotective activities of polyphenol-rich palm leaves extract and captopril were evaluated in normal and nitric oxide (NO) deficient rats by assessing neuron viability of three subfields in the hippocampus; CA1. CA3 and DG. […] CA3 and DG of the hippocampus, and that co-administration with palm leaves extract attenuated this effect more effectively than with captopril. The pronounced loss of neurons with L-NAME administration caused the impairment in acquisition, but not retention, of spatial memory in the radial-arm maze task and the Morris water maze task. The neuroprotective effect of palm leaves extract was not significant in normal adult rats where loss of neurons have not occurred.

[2] = test system: hippocampal CA3 pyramidal cells; experiment: Neuron viability in hippocampal CA3 of normal and nitric oxide (NO) deficient rats; details: nitric oxide (NO) deficient rats, 12-week L-NAME administration; FIG. 1b
Protocol: as §1, with “DG. […] No significant difference in viability was observed between all 3 groups of normal rats.” for “DG.”

[3] = test system: brain superoxide dismutase (SOD); experiment: Brain superoxide dismutase (SOD) activities in normal and NO deficient rats
[4] = test system: hippocampal dentate gyrus (DG) granule cells; experiment: Neuron viability in hippocampal dentate gyrus of normal and nitric oxide (NO) deficient rats; details: nitric oxide (NO) deficient rats, 12-week L-NAME administration; FIG. 1c
Protocol: as §1, with “DG. […] The viability values of all 3 normal groups were similar.” for “DG.”

brain catalase = experiment: Brain catalase in normal and NO deficient rats; details: normal rats, FIG. 2c
[5] = test system: brain malondialdehyde (MDA); experiment: Brain malondialdehyde (MDA) concentrations in normal and NO deficient rats; details: normal rats, FIG. 2d

Question: For COC(=O)[C@@H](N)CCCNC(=N)N[N+](=O)[O-] [L-NAME], which “viable pyramidal cells in CA1” value [1] is on record?
Answer: The value was 40%.

Question: And the “CA3 pyramidal cells viability” value [2]?
Answer: The value was 15%.

Question: What about the “superoxide dismutase (SOD) activity” value ([3]; L-NAME administration alone, FIG. 2a) of the same compound?
Answer: Its value is “decreased”.

Question: Which results are given for C[C@H](CS)C(=O)N1CCC[C@H]1C(=O)O [captopril]?
Answer: viable pyramidal cells in CA1 [1]: partial neuroprotection; viable pyramidal cell count in CA1 compared to control ([1]; normal rats): no significant change; CA3 pyramidal cells viability [2]: 35%; viable granule cells in dentate gyrus (DG) / neurons protected from degeneration [4]: 34%; increase of superoxide dismutase (SOD) activities compared with L-NAME treated animals ([3]; nitric oxide (NO) deficient rats, FIG. 2a): 51%; superoxide dismutase (SOD) activity ([3]; normal rats): maintaining; catalase activity compared to control (brain catalase): depleted significantly; malondialdehyde (MDA) level [5]: maintaining
